From patent publication US20150274664A1 (MERCK SHARP & DOHME CORP., priority 2012, published 2015)

Biological target: T1, human GPR119 (Homo sapiens, UniProt Q8TDV5)
T1 construct: expressed in transfected cells; host or cells: HEK293
T1 sequence (Q8TDV5 1-335): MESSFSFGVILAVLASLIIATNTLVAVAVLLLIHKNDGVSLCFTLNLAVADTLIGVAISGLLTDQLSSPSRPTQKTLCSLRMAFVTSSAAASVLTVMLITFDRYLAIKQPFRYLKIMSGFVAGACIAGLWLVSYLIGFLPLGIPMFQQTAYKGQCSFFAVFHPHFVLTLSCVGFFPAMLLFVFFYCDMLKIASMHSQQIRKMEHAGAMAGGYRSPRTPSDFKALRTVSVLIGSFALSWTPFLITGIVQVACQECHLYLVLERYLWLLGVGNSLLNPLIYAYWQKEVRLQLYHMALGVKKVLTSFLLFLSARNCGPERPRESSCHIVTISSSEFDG
Test: Measurement of GPR119 signaling using LANCE 384-well cAMP kit (LCMP assay)
Type: cell-based
Conditions: HEK293 cells stably transfected with human GPR119
Description: Measurement of GPR119 Signaling Using LANCE 384-Well cAMP Kit (LCMP Assay)
Human embryonic kidney (HEK) 293 cell lines stably transfected with human GPR119 were maintained in DMEM media containing FBS, penicillin-streptomycin, HEPES, and hygromycin. For the cAMP assay, the transfected cells were harvested using a non-enzymatic cell dissociation solution (GIBCO 2672), pelleted and resuspended in stimulation buffer (DMEM, 25 mM Hepes, 0.1% BSA, pH 7.4 in the presence of 100 μM phosphodiesterase inhibitors). The adenylate cyclase assay was constructed following the LANCE™ cAMP Kit (Perkin Elmer, AD0264) instructions. Briefly, cells with Alexa Fluor® 647-anti cAMP antibody were incubated with 10 point series diluted test article in stimulation buffer with a final concentration of 2.5% DMSO for 45 minutes. The reaction was stopped by incubating with the supplied detection buffer containing the europium chelate of the Eu-SA/Biotin-cAMP tracer for 3 hours. The assay was performed in duplicate in a 384 well plate for duplicate plates. Fluorescence at 665 nm was measured using a PHERAstar instrument. Basal activity was determined using a DMSO control and maximum response was defined as cAMP stimulation produced by an internal agonist control. Standard cAMP concentrations were assayed concurrently for conversion of fluorescence signal to cAMP level. The data was analyzed using 4-parameter curve fit in Microsoft Excel.

| EC50 [nM] | Structure (SMILES) |
| --- | --- |
| 1.6 | CS(=O)(=O)c1ccc(COC[C@H]2C[C@@H]2C2CCN(c3ncc(Cl)cn3)CC2)c(F)c1 [Example 4] |
| 1.3 | CCc1cnc(N2CCC([C@H]3C[C@@H]3COCc3ccc(S(C)(=O)=O)cc3F)CC2)nc1 [Example 8, 5-ethyl-2-(4-((1R,2S)-2-(((2-fluoro-4-(methylsulfonyl)benzyl)oxy)methyl)cyclopropyl)piperidin-1-yl)pyrimidine] |
| 22 | CCc1cnc(N2CCC([C@H]3C[C@@H]3COCc3ccc(S(=O)(=O)CC)cc3)CC2)nc1 [Example 9, 5-ethyl-2-(4-((1R,2S)-2-(((4-(ethylsulfonyl)benzyl)oxy)methyl)cyclopropyl)piperidin-1-yl)pyrimidine] |
| 7.1 | COCc1cnc(N2CCC([C@H]3C[C@@H]3COCc3ccc(S(C)(=O)=O)cc3F)CC2)nc1 [Example 11, 2-(4-((1R,2S)-2-(((2-fluoro-4-(methylsulfonyl)benzyl)oxy)methyl)cyclopropyl)piperidin-1-yl)-5-(methoxymethyl)pyrimidine] |
| 14 | COCc1cnc(N2CCC([C@H]3C[C@@H]3COCc3ccc(S(C)(=O)=O)cc3)CC2)nc1 [Example 12, 5-(methoxymethyl)-2-(4-((1R,2S)-2-(((4-(methylsulfonyl)benzyl)oxy)methyl)cyclopropyl)piperidin-1-yl)pyrimidine] |
| 24 | CCS(=O)(=O)c1ccc(COC[C@H]2C[C@@H]2C2CCN(c3ncc(COC)cn3)CC2)cc1 [Example 13, 2-(4-((1R,2S)-2-(((4-(ethylsulfonyl)benzyl)oxy)methyl)cyclopropyl)piperidin-1-yl)-5-(methoxymethyl)pyrimidine] |
| 8.8 | CC1(OC(=O)N2CCC([C@H]3C[C@@H]3COCc3ccc(S(C)(=O)=O)cc3F)CC2)CC1 [Example 14, 1-methylcyclopropyl 4-((1R,2S)-2-((2-fluoro-4-(methylsulfonyl)benzyloxy)methyl)cyclopropyl)piperidine-1-carboxylate] |
| 13 | CC1(OC(=O)N2CCC([C@H]3C[C@@H]3COCc3ccc(CC(=O)N4CCC4)cc3F)CC2)CC1 [Example 23, 1-methylcyclopropyl 4-((1R,2S)-2-((4-(2-(azetidin-1-yl)-2-oxoethyl)-2-fluorobenzyloxy)methyl)cyclopropyl)piperidine-1-carboxylate] |
| 8.3 | CS(=O)(=O)c1ccc(OCC[C@@H]2C[C@H]2C2CCN(c3ncc(Cl)cn3)CC2)cc1F [Example 24, 5-chloro-2-(4-((1S,2S)-2-(2-(3-fluoro-4-(methylsulfonyl)phenoxy)ethyl)cyclopropyl)piperidin-1-yl)pyrimidine] |
| 4.1 | CS(=O)(=O)c1ccc(OCC[C@H]2C[C@@H]2C2CCN(c3ncc(Cl)cn3)CC2)cc1F [Example 25, 5-chloro-2-(4-((1R,2R)-2-(2-(3-fluoro-4-(methylsulfonyl)phenoxy)ethyl)cyclopropyl)piperidin-1-yl)pyrimidine] |
| 9.4 | CCc1cnc(N2CCC([C@@H]3C[C@H]3CCOc3ccc(S(C)(=O)=O)cc3F)CC2)nc1 [Example 26, 5-ethyl-2-(4-((1S,2S)-2-(2-(2-fluoro-4-(methylsulfonyl)phenoxy)ethyl)cyclopropyl)piperidin-1-yl)pyrimidine] |
| 5.5 | CCc1cnc(N2CCC([C@H]3C[C@@H]3CCOc3ccc(S(C)(=O)=O)c(F)c3)CC2)nc1 [Example 27, 5-ethyl-2-(4-((1R,2R)-2-(2-(3-fluoro-4-(methylsulfonyl)phenoxy)ethyl)cyclopropyl)piperidin-1-yl)pyrimidine] |
| 8.8 | CCc1cnc(N2CCC([C@H]3C[C@@H]3CCOc3ccc(S(C)(=O)=O)cc3F)CC2)nc1 [Example 28, 5-ethyl-2-(4-((1R,2R)-2-(2-(2-fluoro-4-(methylsulfonyl)phenoxy)ethyl)cyclopropyl)piperidin-1-yl)pyrimidine] |
| 17 | CS(=O)(=O)c1ccc(OCC[C@@H]2C[C@H]2C2CCN(c3ncc(Cl)cn3)CC2)c(F)c1 [Example 29, 5-chloro-2-(4-((1S,2S)-2-(2-(2-fluoro-4-(methylsulfonyl)phenoxy)ethyl)cyclopropyl)piperidin-1-yl)pyrimidine] |
| 23 | CS(=O)(=O)c1ccc(OCC[C@H]2C[C@@H]2C2CCN(c3ncc(Cl)cn3)CC2)c(F)c1 [Example 30, 5-chloro-2-(4-((1R,2R)-2-(2-(2-fluoro-4-(methylsulfonyl)phenoxy)ethyl)cyclopropyl)piperidin-1-yl)pyrimidine] |
| 16 | CCc1cnc(N2CCC([C@@H]3C[C@H]3CCOc3ccc(S(C)(=O)=O)c(F)c3)CC2)nc1 [Example 31, 5-ethyl-2-(4-((1S,2S)-2-(2-(3-fluoro-4-(methylsulfonyl)phenoxy)ethyl)cyclopropyl)piperidin-1-yl)pyrimidine] |
| 18 | CCc1cnc(N2CCC([C@@H]3C[C@H]3CCOc3ccc(S(=O)(=O)CC)cc3F)CC2)nc1 [Example 32, 5-ethyl-2-(4-((1S,2S)-2-(2-(4-(ethylsulfonyl)-2-fluorophenoxy)ethyl)cyclopropyl)piperidin-1-yl)pyrimidine] |
| 15 | COCc1cnc(N2CCC([C@H]3C[C@@H]3CCOc3ccc(S(C)(=O)=O)c(F)c3)CC2)nc1 [Example 33, 2-(4-((1R,2R)-2-(2-(3-fluoro-4-(methylsulfonyl)phenoxy)ethyl)cyclopropyl)piperidin-1-yl)-5-(methoxymethyl)pyrimidine] |
| 0.64 | O=C(Cc1ccc(OCC[C@H]2C[C@@H]2C2CCN(c3ncc(Cl)cn3)CC2)cc1F)N1CCC1 [Example 34, 1-(azetidin-1-yl)-2-(4-(2-((1R,2R)-2-(1-(5-chloropyrimidin-2-yl)piperidin-4-yl)cyclopropyl)ethoxy)-2-fluorophenyl)ethanone] |
| 4.6 | O=C(Cc1ccc(OCC[C@H]2C[C@@H]2C2CCN(c3ncc(Cl)cn3)CC2)c(F)c1)N1CCC1 [Example 35, 1-(azetidin-1-yl)-2-(4-(2-((1R,2R)-2-(1-(5-chloropyrimidin-2-yl)piperidin-4-yl)cyclopropyl)ethoxy)-3-fluorophenyl)ethanone] |
| 5.5 | CCc1cnc(N2CCC([C@@H]3C[C@H]3CCOc3ccc(CC(=O)N4CCC4)c(F)c3)CC2)nc1 [Example 36, 1-(azetidin-1-yl)-2-(4-(2-((1S,2S)-2-(1-(5-ethylpyrimidin-2-yl)piperidin-4-yl)cyclopropyl)ethoxy)-2-fluorophenyl)ethanone] |
| 6.8 | Fc1cc(OCC[C@H]2C[C@@H]2C2CCN(c3ncc(Cl)cn3)CC2)ccc1-n1cnnn1 [Example 37, 5-chloro-2-(4-((1R,2R)-2-(2-(3-fluoro-4-(1H-tetrazol-1-yl)phenoxy)ethyl)cyclopropyl)piperidin-1-yl)pyrimidine] |
| 5.3 | CCc1cnc(N2CCC([C@H]3C[C@@H]3CCOc3ccc(-n4cnnn4)c(F)c3)CC2)nc1 [Example 38, 5-ethyl-2-(4-((1R,2R)-2-(2-(3-fluoro-4-(1H-tetrazol-1-yl)phenoxy)ethyl)cyclopropyl)piperidin-1-yl)pyrimidine] |
| 8.7 | CCc1cnc(N2CCC([C@@H]3C[C@H]3CCOc3ccc(-n4cnnn4)c(F)c3)CC2)nc1 [Example 39, 5-ethyl-2-(4-((1S,2S)-2-(2-(3-fluoro-4-(1H-tetrazol-1-yl)phenoxy)ethyl)cyclopropyl)piperidin-1-yl)pyrimidine] |
| 5 | CCc1cnc(N2CCC([C@@H]3C[C@H]3CCOc3ccc(-n4cnnn4)cc3F)CC2)nc1 [Example 40, 5-ethyl-2-(4-((1S,2S)-2-(2-(2-fluoro-4-(1H-tetrazol-1-yl)phenoxy)ethyl)cyclopropyl)piperidin-1-yl)pyrimidine] |
| 5.6 | Fc1cc(-n2cnnn2)ccc1OCC[C@@H]1C[C@H]1C1CCN(c2ncc(Cl)cn2)CC1 [Example 41, 5-chloro-2-(4-((1S,2S)-2-(2-(2-fluoro-4-(1H-tetrazol-1-yl)phenoxy)ethyl)cyclopropyl)piperidin-1-yl)pyrimidine] |
| 1.8 | O=C(Cc1ccc(OCC[C@@H]2C[C@H]2C2CCN(c3ncc(Cl)cn3)CC2)cc1F)N1CCC1 [Example 42, 1-(azetidin-1-yl)-2-(4-(2-((1S,2S)-2-(1-(5-chloropyrimidin-2-yl)piperidin-4-yl)cyclopropyl)ethoxy)-2-fluorophenyl)ethanone] |
| 9.6 | CCc1cnc(N2CCC([C@H]3C[C@@H]3CCOc3ccc(N4CCNC4=O)c(F)c3)CC2)nc1 [Example 43, 1-(4-(2-((1R,2R)-2-(1-(5-ethylpyrimidin-2-yl)piperidin-4-yl)cyclopropyl)ethoxy)-2-fluorophenyl)imidazolidin-2-one] |
| 2.9 | CCc1cnc(N2CCC([C@H]3C[C@@H]3CCOc3ccc(CC(=O)N4CCC4)cc3F)CC2)nc1 [Example 44, 1-(azetidin-1-yl)-2-(4-(2-((1R,2R)-2-(1-(5-ethylpyrimidin-2-yl)piperidin-4-yl)cyclopropyl)ethoxy)-3-fluorophenyl)ethanone] |
